# Laboratory results: US20240148769A1, “PHARMACEUTICAL COMPOSITION FOR PREVENTING OR TREATING CORONAVIRUS DISEASE 19, CONTAINING CARBOCYCLIC NUCLEOSIDE DERIVATIVE” (FUTURE MEDICINE CO., LTD., priority 2021, published 2024)
# pIC50: −log10 of the molar value.
# System: SARS-CoV-2
# Test: microbe, parasite or virus in culture
# Type: cell-based
# Details: Severe acute respiratory syndrome coronavirus 2, Vero, 24 h
row,Compound,pIC50
1,"CCN(CC)CCCC(C)Nc1ccnc2cc(Cl)ccc12 (stereo not drawn) [Chloroquine, chloroquine, reference compound]",5.01
2,"Cc1cccc(C)c1OCC(=O)N[C@@H](Cc1ccccc1)[C@@H](O)C[C@H](Cc1ccccc1)NC(=O)[C@H](C(C)C)N1CCCNC1=O [Lopinavir, lopinavir, reference compound]",4.68
3,"CCC(CC)COC(=O)[C@H](C)N[P@](=O)(OC[C@H]1O[C@@](C#N)(c2ccc3c(N)ncnn23)[C@H](O)[C@@H]1O)Oc1ccccc1 [Remdesivir, remdesivir, reference compound]",5.10

# Same assay, conditions: Severe acute respiratory syndrome coronavirus 2; Vero cells, SARS-CoV-2 MOI 0.0125, 24 hours, derived through the DRC, duplicate; read-out: IC50
row,Compound,pIC50
1,Nc1ncnc2c1ncn2[C@H]1C(O)C(O)[C@@H](CO)[C@H]1F (stereo partly drawn) [Chemical Formula 1-1],5.13
2,Nc1ncnc2c1ncn2[C@H]1C(O)C(O)[C@@H](CO)C1(F)F (stereo partly drawn) [Chemical Formula 1-2],5.51
3,CNc1nc(-c2cccs2)nc2c1nc(C#Cc1ccccc1)n2[C@@H]1OCC(O)C1O (stereo partly drawn) [Chemical Formula 2],5.14

# Same assay, conditions: Severe acute respiratory syndrome coronavirus 2; screening criterion for Positives; Vero cells; 10 μM (FIG. 8); read-out: ability to inhibit infection
row,Compound,inhibition at 10 µM [%]
1,Nc1ncnc2c1ncn2[C@H]1C(O)C(O)[C@@H](CO)[C@H]1F (stereo partly drawn) [Chemical Formula 1-1],≥ 70
2,Nc1ncnc2c1ncn2[C@H]1C(O)C(O)[C@@H](CO)C1(F)F (stereo partly drawn) [Chemical Formula 1-2],≥ 70
3,CNc1nc(-c2cccs2)nc2c1nc(C#Cc1ccccc1)n2[C@@H]1OCC(O)C1O (stereo partly drawn) [Chemical Formula 2],≥ 70

# System: not listed separately
# Test: in vitro
# Details: African green monkey
row,Compound,CC50 [µM]
1,Nc1ncnc2c1ncn2[C@H]1C(O)C(O)[C@@H](CO)[C@H]1F (stereo partly drawn) [Chemical Formula 1-1],> 50
2,Nc1ncnc2c1ncn2[C@H]1C(O)C(O)[C@@H](CO)C1(F)F (stereo partly drawn) [Chemical Formula 1-2],> 50
3,CNc1nc(-c2cccs2)nc2c1nc(C#Cc1ccccc1)n2[C@@H]1OCC(O)C1O (stereo partly drawn) [Chemical Formula 2],> 50
4,"CCN(CC)CCCC(C)Nc1ccnc2cc(Cl)ccc12 (stereo not drawn) [Chloroquine, chloroquine, reference compound]",> 150
5,"Cc1cccc(C)c1OCC(=O)N[C@@H](Cc1ccccc1)[C@@H](O)C[C@H](Cc1ccccc1)NC(=O)[C@H](C(C)C)N1CCCNC1=O [Lopinavir, lopinavir, reference compound]",> 50
6,"CCC(CC)COC(=O)[C@H](C)N[P@](=O)(OC[C@H]1O[C@@](C#N)(c2ccc3c(N)ncnn23)[C@H](O)[C@@H]1O)Oc1ccccc1 [Remdesivir, remdesivir, reference compound]",> 50
